According to ChEMBL document CHEMBL1150691, “New lysophosphatidylcholines and monoglycerides from the marine sponge Stelletta sp” (2003):
In brackets after ≈: the same amount, converted by molar mass.

Experiments:
Type in all cases: functional
Settings in all cases: read-out: ED50 (the source's name)
A549 = assay: Cytotoxicity against human A549 cells
SK-OV-3 = assay: Cytotoxicity against human SKOV3 cells
SK-MEL-2 = assay: Cytotoxicity against human SK-MEL-2 cells
XF498 = assay: Cytotoxicity against human XF498 cells
HCT-15 = assay: Cytotoxicity against human HCT15 cells

SMILES | EC50 (A549) | EC50 (SK-OV-3) | EC50 (SK-MEL-2) | EC50 (XF498) | EC50 (HCT-15)
C=CCCCCC(C)CCC/C=C\C#CCC[C@H](OC)C(=O)OC[C@@H](O)CO (stereo not given in full) | 31.3 µg/mL (≈ 79.3 µM) | > 30 µg/mL | > 30 µg/mL | 42.5 µg/mL (≈ 108 µM) | > 30 µg/mL
COc1cccc2c1C(=O)c1c(O)c3c(c(O)c1C2=O)C[C@@](O)(C(=O)CO)C[C@@H]3O[C@H]1C[C@H](N)[C@H](O)[C@H](C)O1 [DOXORUBICIN] | 0.03 µg/mL (≈ 0.0552 µM) | 0.13 µg/mL (≈ 0.239 µM) | 0.06 µg/mL (≈ 0.11 µM) | 0.19 µg/mL (≈ 0.35 µM) | 0.29 µg/mL (≈ 0.534 µM)
COC(=O)CCCCCCCCCCCCCCO | 25.9 µg/mL (≈ 95.1 µM) | 35.7 µg/mL (≈ 131 µM) | > 30 µg/mL | > 30 µg/mL | 16.5 µg/mL (≈ 60.6 µM)
C=CCCCCC(C)CCC/C=C\C#CCC[C@H](OC)C(=O)OC[C@@H](O)COP(=O)([O-])CC[N+](C)(C)C (stereo not given in full) | 11.8 µg/mL (≈ 21.7 µM) | 14.5 µg/mL (≈ 26.7 µM) | 9.1 µg/mL (≈ 16.7 µM) | 13.6 µg/mL (≈ 25 µM) | 15.1 µg/mL (≈ 27.8 µM)
CC(C)CCCCCCCCCC(C)C(=O)OC[C@@H](O)CO (stereo not given in full) | 20 µg/mL (≈ 63.2 µM) | 38.9 µg/mL (≈ 123 µM) | 21.8 µg/mL (≈ 68.9 µM) | 30.7 µg/mL (≈ 97 µM) | 18.6 µg/mL (≈ 58.8 µM)
COC(=O)CCCCCCCCCCCCCCCCO | > 30 µg/mL | > 30 µg/mL | > 30 µg/mL | > 30 µg/mL | > 30 µg/mL
CC(C)CCCCCCCCCCCCC/C=C\CCCC(=O)OC[C@@H](O)CO | > 30 µg/mL | > 30 µg/mL | > 30 µg/mL | > 30 µg/mL | > 30 µg/mL
CC(C)CCCCCCCCCCCC/C=C\CC/C=C\CCCC(=O)OC[C@@H](O)CO | > 30 µg/mL | > 30 µg/mL | > 30 µg/mL | > 30 µg/mL | > 30 µg/mL
CC(C)CCCCCCCCCC(C)C(=O)OC[C@@H](O)COP(=O)([O-])CC[N+](C)(C)C (stereo not given in full) [STELLETTACHOLINE B] | 7.4 µg/mL (≈ 15.9 µM) | 4.8 µg/mL (≈ 10.3 µM) | 6.3 µg/mL (≈ 13.5 µM) | 24.1 µg/mL (≈ 51.8 µM) | 26.9 µg/mL (≈ 57.8 µM)
